Data published in US20180184655A1 (priority 2011, published 2018).

Tested on: Phytophthora infestans
Assay type: in vivo, Phytophthora infestans on Potato
Conditions: Potato field trial, France 2010, 6 foliar sprays, fluopicolide 75 g a.s./ha, cyazofamid 60 g a.s./ha, adjuvant 150 ml/ha

## O=C(NCc1ncc(C(F)(F)F)cc1Cl)c1c(Cl)cccc1Cl [Fluopicolide, 2,6-dichloro-N-[3-chloro-5-(trifluoromethyl)-2-pyridylmethyl]benzamide]
29 days after last application
  Efficacy (Abbott values): 18.3%
Assessed 29 days after last application, mean values, untreated reference 100%
  Late blight severity on leaves: 81.7%
